The record followed here is patent US6727244B2, “Mammalian metabolites of a tachykinin receptor antagonist” (Merck & Co., Inc., priority 2000, dated 2004).

A short description of data set [1]: glucuronidation in liver microsomes from humans. The data set is classed as in vitro ADME. The conditions noted are these: human liver microsomes, UDPGA, 37° C. for 60 min. The method, then:
All liver microsomal and cytosolic fractions were prepared using the following procedure. Thawed livers were homogenized with 2 volumes of 50 mM Tris-buffer (pH 7.5) containing 1.15% KCl. For microsomal and cytosolic preparations, the homogenate was centrifuged for 20 min at 9,000×g and the resulting supernatant was centrifuged for 60 min at 105,000×g. The resulting cytosolic fractions were re-centrifuged at 105,000×g for 60 min. Fractions of cytosol were aliquoted into small tubes and stored at −70° C. Subsequently, the microsomal pellets were washed with 10 mM EDTA containing 1.15% KCl and were centrifuged at 105,000×g for 60 min. […] Protein concentrations were determined by a modified Lowry assay (Smith et al., 1985). The specific cytochrome P450 content in each microsomal preparation was measured as described by Omura and Sato, J. Biol. Chem. 239, 2370-2378 (1964).
The typical reaction mixture (500 μl) containing 10 mM MgCl2, 2% glycerol, 0.02% lubrol PX, 3 mM UDPGA, 1 mg liver microsomes, 50 mM bis-tris propane buffer (pH 8.5) and ˜10 or 25 μM compound (in 15 μl methanol) was incubated at 37° C. for 30-60 min. After incubation, the reactions were terminated by the addition of four volumes of acetonitrile and processed and analyzed by HPLC as mentioned above.

The nature of data set [2]: metabolism in primary cultures of rat hepatocytes. The data set is classed as in vitro ADME. As to conditions: after 6 hr. As for the experimental part:
Hepatocytes were harvested from male Sprague-Dawley rat livers or human livers and cultured on a matrigel support and treated with 0.1 μM dexamethasone or 50 μM rifampicin, respectively, for 48 hr prior to the addition of the test compounds. A 2.5 mM stock solution of [^14C]2-(R)-(1-(R)-(3,5-bis(trifluoromethyl)-phenyl)ethoxy)-3-(S)-(4-fluoro)phenyl-4-(3-(5-oxo-1H,4H-1,2,4-triazolo)methylmorpholine, [^14C]M-1 or [^14C]M-2 in DMSO was added to the plates such that the final concentration of test compound was 25 μM and DMSO was 1% (v/v). The cultures were incubated for 4, 6 or 24 hr for rat hepatocytes and 48 hr for human hepatocytes. The incubation mixtures (500 μL) contained 10 μM of test compound, 100 mM phosphate buffer pH 7.4, NADPH-regenerating system, microsomes containing expressed CYP isoforms (CYP1A2, CYP2A6, CYP2B6, CYP2C8, CYP2C9, CYP2C19, CYP2D6, CYP2E1 or CYP3A4) and cytochrome P-450 reductase. The reactions were initiated by adding NADP and proceeded at 37° C. for 15-45 min. […]
Method A was conducted on a Shimadzu HPLC system (Shimadzu Scientific Instruments Inc., Columbia Md.). The parent compounds and their metabolites were monitored directly using a radiometric detector (INUS Systems Inc. Tampa, Fla.) and Ultima-Flow M (Packard Instrument Co., Meridan Conn.) as scintillant at a flow rate of 3 mL/min. […]

For `C[C@@H](O[C@H]1OCCN[C@H]1c1ccc(F)cc1)c1cc(C(F)(F)F)cc(C(F)(F)F)c1` [Metabolite M-1, (2R,3S)-2-[(1R)-1-[3,5-bis(trifluoromethyl)phenyl]ethoxy]-3-(4-fluorophenyl)morpholine], in data set [1], the “conversion to the corresponding glucuronide” value is listed as about 20%. For the same molecule, the “metabolism in rat hepatocyte cultures” value in data set [2] is given as “extensively metabolized”.
